In US20040198758A1, “N-heterocyclyl substituted thienyloxy-pyrimidines used as herbicides” (priority 2001, published 2004):

Tests used:
Test in all cases: greenhouse post-emergence herbicidal treatment
Format in all cases: in vivo
Conditions in all cases: application rates of 0.25 or 0.125 kg/ha
[1] = system: Galium aparine
Excerpt: (§1) The seeds of the test plants were sown separately for each species. For the post-emergence treatment, the test plants were first grown to a height of from 3 to 15 cm, depending on the plant habit, and only then treated with the active compounds which had been suspended or emulsified in water. The test plants were for this purpose either sown directly and grown in the same containers., or they were first grown separately as seedlings and transplanted into the test containers a few days prior to treatment. The application rate for the post-emergence treatment was 0.25 or 0.125 kg of a.s. (active substance)/ha. Depending on the species, the plants were kept at 10-25° C. or 20-35° C. The test period extended over 2 to 4 weeks. During this time, the plants were tended, and their response to the individual treatments was evaluated. Evaluation was carried out using a scale from 0 to 100. 100 means no emergence of the plants, or complete destruction of at least the above-ground parts and 0 means no damage, or normal course of growth. The plants used in the greenhouse experiments were of the following species: [table]

[2] = system: Pharbitis purpurea
Excerpt: as §1

[3] = system: Chenopodium album
Excerpt: as §1

[4] = system: Amaranthus retroflexus
Excerpt: as §1

[5] = system: Polygonum persicaria
Excerpt: as §1

Cc1cnc(-n2ccc(C(F)(F)F)n2)nc1Oc1csc(C(F)(F)F)c1 [I 1.1, 5-methyl-2-[3-(trifluoromethyl)-1H-pyrazol-1-yl]-4-{[5-(trifluoromethyl)-3-thienyl]oxy}pyrimidine]
very good: post-emergence action against Galium aparine [1] | post-emergence action against Pharbitis purpurea [2] | post-emergence action against Chenopodium album [3] | post-emergence action against Amaranthus retroflexus [4] | post-emergence action against Polygonum persicaria [5]
